# “Also recorded” adds a separate entry of the source.
# Tests used:
# [1] = tested on: stimulated human monocytic THP-1 cells; experiment: Viability of LPS plus IFN-γ stimulated THP-1 cells (MTT assay); format: cell-based; details: 1–100 μM, added 15 min before LPS plus IFN-γ, 24 h
# Procedure: (§1) The MTT assay was performed as described by Mosmann and by Hansen et al.. Cell viability was determined by adding MTT to the cell cultures to reach a final concentration of 500 μg mL^−1. Following one h incubation at 37 °C, the dark purple crystals formed by viable cells were dissolved by adding to the wells an equal volume of the extraction buffer containing 20% sodium dodecyl sulfate and 50% N,N-dimethylformamide, pH 4.7. After overnight incubation at 37 °C, 100 μL aliquots of MTT solutions were transferred to a 96-well plate, and a FLUOstar Omega platereader (BMG Labtech, Offenburg, Germany) was used to measure the optical densities at 570 nm. Cell viability in various samples was calculated as percent of the optical density value obtained with cells incubated in fresh cell culture medium only.
# (§2) The anti-neurotoxic activity of the compounds was evaluated using a method described previously. Human monocytic THP-1 cells were transferred to 24-well plates in 800 µL aliquots of 5 × 10^5 cells mL^−1 per well. The cells were pre-incubated with varying concentrations of pyrazole derivatives or their DMSO vehicle solution for 15 min before stimulation with a combination of lipopolysaccharide (LPS, 0.5 µg mL^−1) and human interferon-γ (IFN-γ, 150 U mL^−1). […] After 24 h incubation, 400 µL of supernatants from THP-1 cells was transferred to SH-SY5Y cells (seeded 24 h earlier in 24-well plates; 400 µL of 2 × 10^5 cells mL^−1). The viability of THP-1 cells was measured by the MTT assay immediately after the transfer of the supernatants. The effects of THP-1 cell supernatants on SH-SY5Y neuronal cell viability were measured by the MTT assay after 72 h incubation. […] The concentrations of stimuli and incubation times of THP-1 cells with the stimuli were selected in preliminary experiments so that significant partial killing of SH-SY5Y cells was achieved (20–30% viable cells left), which could be a result of the combined action of cytotoxins secreted by THP-1 cells and depletion of nutrients from the cell culture medium by the stimulated THP-1 cells.
# [2] = tested on: immune-stimulated human THP-1 monocytic cells (toxicity toward SH-SY5Y neuronal cells); experiment: Anti-neurotoxic activity: supernatants of compound-treated stimulated THP-1 cells transferred to SH-SY5Y cells (MTT assay); format: cell-based; details: for IC50: Homo sapiens, estimated from Figure 4, read-out: IC50 for reducing toxic effect of stimulated THP-1 supernatants on SH-SY5Y cells
# Procedure: as §1, §2
# [3] = tested on: SH-SY5Y cells; experiment: Neuroprotective activity: compounds added directly to SH-SY5Y cells with stimulated THP-1 supernatants (MTT assay); format: cell-based, human
# Procedure: as §1
# SH-SY5Y cells were seeded into 24-well plates (400 µL at 2 × 10^5 cells mL^−1). After 24 h incubation, the cell culture medium was replaced with 400 µL of supernatants from THP-1 cells that had been stimulated for 24 h with LPS plus IFN-γ, as described in 2.6. Varying concentrations of the compounds or the DMSO vehicle solution were added directly to SH-SY5Y cells at the time of the supernatant transfer. The viability of SH-SY5Y cells was measured by the MTT assay 72 h later.
# [4] = tested on: human PC-3 prostate cancer cells; experiment: Cytotoxicity of pyrazole derivatives to PC-3 cells (MTT assay); format: cell-based; details: 100 μM (highest concentration tested), 48 h
# Procedure: as §1
# PC-3 prostate cancer cells were transferred to 24-well plates in 500 µL aliquots of 1.5 × 10^5 cells mL^−1 per well. Varying concentrations of the pyrazole derivatives or the 0.5% DMSO vehicle were added to the cells. After 48 h incubation, cell viability was measured by using the MTT assay.
# [5] = tested on: SH-SY5Y cells; design: method as in PMID 20609589; details: earlier report; cited from earlier work
structure (smiles),measurement,setting,value
N#Cc1cnn(-c2ccccc2)c1NC(=O)C(=O)Nc1ccc(O)cc1 [2f],melting point,,237 to 239 °C
N#Cc1cnn(-c2ccccc2)c1NC(=O)C(=O)Nc1ccc(N)cc1 [2e],"toxicity to stimulated THP-1 cells (cell viability, MTT)",[1],None of these six derivatives were toxic
same,IC50,[2],10 to 50 µM
same,melting point,,258 to 261 °C
CN(C)C(=O)C(=O)Nc1c(C#N)cnn1-c1ccccc1 [2c],"toxicity to stimulated THP-1 cells (cell viability, MTT)",[1],None of these six derivatives were toxic
same,IC50,[2],10 to 50 µM
same,melting point,,250 to 253 °C
N#Cc1cnn(-c2ccccc2)c1NC(=O)C(=O)N(C1CCCCC1)C1CCCCC1 [2b],"toxicity to stimulated THP-1 cells (cell viability, MTT)",[1],None of these six derivatives were toxic
same,IC50,[2],10 to 50 µM
same,melting point,,188 to 190 °C
N#Cc1cnn(-c2ccccc2)c1NC(=O)C(=O)NCCCCCCCCCN [2a],"toxicity to stimulated THP-1 cells (cell viability, MTT)",[1],None of these six derivatives were toxic
same,IC50,[2],50 to 100 µM
same,concentrations at which the protective effect was statistically significant,"[2]; tested 1–100 μM, Dunnett's post-hoc test",100 µM
same,melting point,,108 to 110 °C
CN(C)CCOC(=O)C(=O)Nc1c(C#N)cnn1-c1ccccc1 [compound 3],"toxicity to stimulated THP-1 cells (cell viability, MTT)",[1],None of these six derivatives were toxic
same,IC50,[2],10 to 50 µM
same,direct neuroprotective effect on SH-SY5Y cells,"[3]; 1–100 μM, added at the time of supernatant transfer",neuroprotective effect
same,viability at 100 µM,"[3]; Homo sapiens, SH-SY5Y, 100 μM, 72 h, without compound 20–30%",> 40%
same,melting point,,139 to 141 °C
C=CCNC(=O)C(=O)Nc1c(C#N)cnn1-c1ccccc1 [2d],change in PC-3 cell viability,[4],small yet significant increase in cell viability
same,"toxicity to stimulated THP-1 cells (cell viability, MTT)",[1],None of these six derivatives were toxic
same,change in SH-SY5Y cell viability,"[2]; 100 μM, supernatant transfer from treated THP-1 cells, 72 h",small but significant decrease in SH-SY5Y cell viability; also recorded: small yet significant reduction of SH-SY5Y cell viability
same,protective (anti-neurotoxic) effect,[2]; 1–100 μM,no protective effect
same,"change in SH-SY5Y cell viability, compound added directly","[3]; 100 μM, 72 h",small but significant decrease in SH-SY5Y cell viability
same,melting point,,108 to 110 °C
N#Cc1cnn(-c2ccccc2)c1NC(=O)C(=O)Nc1c(C#N)cnn1-c1ccccc1 [compound 1],direct neuroprotective activity,[5],showed this effect

# — paper PMC6679371, “Synthesis and Evaluation of Novel Pyrazole Ethandiamide Compounds as Inhibitors of Human THP-1 Monocytic Cell Neurotoxicity” (Cells, 2019)
